Data published in US12624018B1, “Inhibitors of RIPK2 and medical uses thereof” (Odyssey Therapeutics, Inc., priority 2022, dated 2026).
pIC50: −log10 of the molar value.

Biological target: T1, RIPK2 enzyme (Homo sapiens, UniProt O43353)
T1 construct: purchased Carna 09-128
Assay: RIPK2 inhibition (ADP-Glo Kinase Assay)
Assay type: biochemical
Conditions: RIPK2 5 nM, ATP 150 μM, MBP substrate, read-out: RIPK2 IC50
Method in brief: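 Swine MBP substrate; compound and 5 nM RIPK2 first mixed for 30 min at room temperature; buffer pH 7.5 HEPES 50 mM with 10 mM MgCl2, 2 mM DTT, 1 mM EGTA, Brij-35, BSA.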

T1 sequence (O43353 1-299 limits assumed): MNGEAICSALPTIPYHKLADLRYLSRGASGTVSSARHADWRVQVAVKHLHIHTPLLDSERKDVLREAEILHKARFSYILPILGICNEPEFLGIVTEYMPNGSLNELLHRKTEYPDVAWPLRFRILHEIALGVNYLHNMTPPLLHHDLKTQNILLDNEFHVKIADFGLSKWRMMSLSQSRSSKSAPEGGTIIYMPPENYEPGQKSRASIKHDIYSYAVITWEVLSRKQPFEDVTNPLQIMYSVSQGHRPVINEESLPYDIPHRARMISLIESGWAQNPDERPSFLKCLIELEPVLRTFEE

| pIC50 | SMILES |
| --- | --- |
| > 8.60 | CC(C)(C)n1cc(NC(=O)Cc2ccc(Oc3ccnc4ccc(S5(=O)=NCCC5)cc34)cc2F)cn1 (centres unmarked) [Compound 66, N-(1-(tert-butyl)-1H-pyrazol-4-yl)-2-(2-fluoro-4-((6-(1-oxido-4,5-dihydro-3H-1λ^6-isothiazol-1-yl)quinolin-4-yl)oxy)phenyl) acetamide] |
| 8.57 | CC(C)(C)n1cc(NC(=O)Cc2ccc(Oc3ccnc4ccc(N5CCCCC5=O)cc34)cc2F)cn1 [Compound 153, N-(1-(tert-butyl)-1H-pyrazol-4-yl)-2-(2-fluoro-4-((6-(2-oxopiperidin-1-yl)quinolin-4-yl)oxy)phenyl) acetamide] |
| > 8.60 | Cc1cc(CC(=O)Nc2cnn(C(C)(C)C)c2)ccc1Oc1ccnc2ccc(OCC(C)O)cc12 (single isomer, unassigned) [Compound 224, N-(1-(tert-butyl)-1H-pyrazol-4-yl)-2-(4-((6-(2-hydroxy-propoxy)quinolin-4-yl)oxy)-3-methylphenyl) acetamide] |
| > 8.60 | CC(C)(C)n1cc(NC(=O)Cc2ccc(Oc3ccnc4ccc(OC5CCNCC5)cc34)c(F)c2F)cn1 [Compound 165, N-(1-(tert-butyl)-1H-pyrazol-4-yl)-2-(2,3-difluoro-4-((6-(piperidin-4-yloxy)quinolin-4-yl)oxy)phenyl) acetamide] |
| > 8.60 | Cc1cc(CC(=O)Nc2cnn(C(C)(C)C)c2)ccc1Oc1ccnc2ccc(OCCO)cc12 [Compound 223, N-(1-(tert-butyl)-1H-pyrazol-4-yl)-2-(4-((6-(2-hydroxy-ethoxy)quinolin-4-yl)oxy)-3-methylphenyl) acetamide] |
| > 8.60 | Cc1c(Oc2ccnc3ccc(C(O)CO)cc23)ccc(CC(=O)Nc2cnn(C(C)(C)C)c2)c1F (centres unmarked) [Compound 444, N-(1-(tert-butyl)-1H-pyrazol-4-yl)-2-(4-((6-(1,2-dihydroxyethyl)quinolin-4-yl)oxy)-2-fluoro-3-methylphenyl)acetamide] |
| > 8.60 | Cc1c(Oc2ccnc3ccc(C(=O)N4CC(F)C4)cc23)ccc(CC(=O)Nc2cnn(C(C)(C)C)c2)c1F [Compound 345, N-(1-(tert-butyl)-1H-pyrazol-4-yl)-2-(2-fluoro-4-((6-(3-fluoro-azetidine-1-carbonyl)quinolin-4-yl)oxy)-3-methylphenyl) acetamide] |
| > 8.60 | Cc1c(Oc2ccnc3ccc(C(=O)N4CCCC4)cc23)ccc(CC(=O)Nc2cnn(C(C)(C)C)c2)c1F [Compound 350, N-(1-(tert-butyl)-1H-pyrazol-4-yl)-2-(2-fluoro-3-methyl-4-((6-(pyrrolidine-1-carbonyl)quinolin-4-yl)oxy)phenyl) acetamide] |
| > 8.60 | Cc1cc(CC(=O)Nc2cnn(C(C)(C)C)c2)c(F)cc1Oc1ccnc2ccc(OC3CCNCC3)cc12 [Compound 114, N-(1-(tert-butyl)-1H-pyrazol-4-yl)-2-(2-fluoro-5-methyl-4-((6-(piperidin-4-yloxy)quinolin-4-yl)oxy)phenyl) acetamide] |
| 7.68 | CC(C)(C)n1cc(NC(=O)Cc2ncc(Oc3ncnc4ccc(OC5CCN(CC(F)(F)F)CC5)cc34)cc2F)cn1 [Compound 112, N-(1-(tert-butyl)-1H-pyrazol-4-yl)-2-(3-fluoro-5-((6-((1-(2,2,2-trifluoroethyl)piperidin-4-yl)oxy)quinazolin-4-yl)oxy)pyridin-2-yl)acetamide] |
| 8.10 | CN1CC(Oc2ccc3ncnc(Oc4ccc(CC(=O)Nc5cnn(C(C)(C)C)c5)c(F)c4)c3c2)C1 [Compound 18, N-(1-(tert-butyl)-1H-pyrazol-4-yl)-2-(2-fluoro-4-((6-((1-methyl-azetidin-3-yl)oxy)quinazolin-4-yl)oxy)phenyl) acetamide] |
| > 8.60 | Cc1c(Oc2ccnc3ccc(S(=O)(=O)N4CC(F)C4)cc23)ccc(CC(=O)Nc2cnn(C(C)(C)C)c2)c1F [Compound 272, N-(1-(tert-butyl)-1H-pyrazol-4-yl)-2-(2-fluoro-4-((6-((3-fluoroazetidin-1-yl)sulfonyl)quinolin-4-yl)oxy)-3-methylphenyl)acetamide] |
| > 8.60 | Cc1cc(CC(=O)Nc2cnn(C(C)(C)C)c2)ccc1Oc1ccnc2ccc(S(=O)(=O)N3CCCC3)cc12 [Compound 257, N-(1-(tert-butyl)-1H-pyrazol-4-yl)-2-(3-methyl-4-((6-(pyrrolidin-1-ylsulfonyl)quinolin-4-yl)oxy)phenyl)acetamide] |
| > 8.60 | Cc1c(Oc2ccnc3ccc(C(=O)NCC(F)(F)F)cc23)ccc(CC(=O)Nc2cnn(C(C)(C)C)c2)c1F [Compound 337, 4-(4-(2-((1-(tert-butyl)-1H-pyrazol-4-yl)amino)-2-oxoethyl)-3-fluoro-2-methyl-phenoxy)-N-(2,2,2-trifluoroethyl) quinoline-6-carboxamide] |
| > 8.60 | Cc1c(Oc2ccnc3ccc(S(=O)(=O)C4CCOC4)cc23)ccc(CC(=O)Nc2cnn(C(C)(C)C)c2)c1F (single isomer, unassigned) [Compound 251, N-(1-(tert-butyl)-1H-pyrazol-4-yl)-2-(2-fluoro-3-methyl-4-((6-((tetrahydrofuran-3-yl)sulfonyl)quinolin-4-yl)oxy)phenyl)acetamide] |
| > 8.60 | CN1CCC(Oc2ccc3ncnc(Oc4cnc(CC(=O)Nc5cc(C(C)(C)C)[nH]n5)c(F)c4)c3c2)CC1 [Compound 57, N-(5-(tert-butyl)-1H-pyrazol-3-yl)-2-(3-fluoro-5-((6-((1-methylpiperidin-4-yl)oxy)quinazolin-4-yl)oxy)pyridin-2-yl)acetamide] |
| > 8.60 | Cc1cc(CC(=O)Nc2cc(C3CC3)n(C)n2)ccc1Oc1ccnc2ccc(S(C)(=O)=O)cc12 [Compound 235, N-(5-cyclopropyl-1-methyl-1H-pyrazol-3-yl)-2-(3-methyl-4-((6-(methylsulfonyl)quinolin-4-yl)oxy)phenyl)acetamide] |
| > 8.60 | CC(C)(C)n1cc(NC(=O)Cc2ccc(Oc3ccnc4ccc(OC5CCNCC5)cc34)cc2F)cn1 [Compound 81, N-(1-(tert-butyl)-1H-pyrazol-4-yl)-2-(2-fluoro-4-((6-(piperidin-4-yloxy)quinolin-4-yl)oxy)phenyl) acetamide] |
| 7.56 | CC(C)(C)n1cc(NC(=O)Cc2ccc(Oc3ncnc4ccc(OCCN5CCCC5)cc34)cc2F)cn1 [Compound 17, N-(1-(tert-butyl)-1H-pyrazol-4-yl)-2-(2-fluoro-4-((6-(2-(pyrrolidin-1-yl)ethoxy)quinazolin-4-yl)oxy)phenyl) acetamide] |
| > 8.60 | Cc1c(Oc2ccnc3ccc(N4CCCC4=O)cc23)ccc(CC(=O)Nc2cnn(C(C)(C)C)c2)c1F [Compound 295, N-(1-(tert-butyl)-1H-pyrazol-4-yl)-2-(2-fluoro-3-methyl-4-((6-(2-oxopyrrolidin-1-yl)quinolin-4-yl)oxy)phenyl) acetamide] |
| > 8.60 | Cc1c(Oc2ccnc3ccc(C(=O)NC4CNC4)cc23)ccc(CC(=O)Nc2cnn(C(C)(C)C)c2)c1F [Compound 405, N-(azetidin-3-yl)-4-(4-(2-((1-(tert-butyl)-1H-pyrazol-4-yl)amino)-2-oxoethyl)-3-fluoro-2-methylphenoxy)quinoline-6-carboxamide] |
| > 8.60 | Cc1cc(CC(=O)Nc2cnn(C(C)(C)C)c2)c(F)cc1Oc1ccnc2ccc(C(=O)N(C)CCO)cc12 [Compound 365, 4-(4-(2-((1-(tert-butyl)-1H-pyrazol-4-yl)amino)-2-oxoethyl)-5-fluoro-2-methyl-phenoxy)-N-(2-hydroxy-ethyl)-N-methyl-quinoline-6-carboxamide] |
| 8.39 | CC(=O)N1CCC(Oc2ccc3nccc(Oc4cnc(CC(=O)Nc5cnn(C(C)(C)C)c5)c(F)c4)c3c2)CC1 [Compound 150, 2-(5-((6-((1-acetylpiperidin-4-yl)oxy)quinolin-4-yl)oxy)-3-fluoropyridin-2-yl)-N-(1-(tert-butyl)-1H-pyrazol-4-yl)acetamide] |
| 7.17 | CC(C)(C)n1cc(NC(=O)Cc2ncc(Oc3ncnc4ccc(O[C@H]5CCOC5)cc34)cc2F)cn1 [Compound 64, (S)-N-(1-(tert-butyl)-1H-pyrazol-4-yl)-2-(3-fluoro-5-((6-((tetrahydrofuran-3-yl)oxy)quinazolin-4-yl)oxy)pyridin-2-yl)acetamide] |
| > 8.60 | Cc1c(Oc2ccnc3ccc(C4CCNC4=O)cc23)ccc(CC(=O)Nc2cnn(C(C)(C)C)c2)c1F (single isomer, unassigned) [Compound 305, N-(1-(tert-butyl)-1H-pyrazol-4-yl)-2-(2-fluoro-3-methyl-4-((6-(2-oxopyrrolidin-3-yl)quinolin-4-yl)oxy)phenyl)acetamide] |
| > 8.60 | Cc1cc(CC(=O)Nc2cnn(C(C)(C)C)c2)ccc1Oc1ccnc2ccc(N3CCOCC3=O)cc12 [Compound 294, N-(1-(tert-butyl)-1H-pyrazol-4-yl)-2-(3-methyl-4-((6-(3-oxomorpholino)quinolin-4-yl)oxy)phenyl) acetamide] |
| > 8.60 | Cc1c(Oc2ccnc3ccc(C(=O)N(C)C)cc23)ccc(CC(=O)Nc2cnn(C(C)(C)C)c2)c1F [Compound 336, 4-(4-(2-((1-(tert-butyl)-1H-pyrazol-4-yl)amino)-2-oxoethyl)-3-fluoro-2-methyl-phenoxy)-N,N-dimethyl-quinoline-6-carboxamide] |
| > 8.60 | CC(C)(C)n1cc(NC(=O)Cc2ccc(Oc3ccnc4ccc(S(=O)(=O)C5COC5)cc34)cc2F)cn1 [Compound 132, N-(1-(tert-butyl)-1H-pyrazol-4-yl)-2-(2-fluoro-4-((6-(oxetan-3-ylsulfonyl)quinolin-4-yl)oxy)phenyl)acetamide] |
| > 8.60 | [2H]C([2H])([2H])c1cc(CC(=O)Nc2cnn(C(C)(C)C)c2)ccc1Oc1ccnc2ccc(S(C)(=O)=O)cc12 [Compound 93, N-(1-(tert-butyl)-1H-pyrazol-4-yl)-2-(3-(methyl-d3)-4-((6-(methylsulfonyl)quinolin-4-yl)oxy)phenyl)acetamide] |
